Patent publication US10202339B2, “Therapeutic compounds and compositions” (AGIOS PHARMACEUTICALS, INC., priority 2012, dated 2019)

molecular target: IDH2 R140Q (Homo sapiens (Human), UniProt P48735, R140Q); assay: IDH2 R140Q enzymatic cofactor depletion assay (diaphorase/resazurin); assay type: biochemical; settings: IDH2 R140Q enzyme, one hour preincubation with compound, one hour reaction; read-out: Enz R140Q
Method in brief: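 Enzyme preincubated with compound 1 h at room temperature, then reaction started with 50 μM NADPH and 6.3 mM α-KG and run 1 h at room temperature. Remaining NADPH measured by diaphorase (36 μg/ml)/resazurin (60 μM) stop mix, fluorescence read at Ex544/Em590 after 1 min.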

IDH2 R140Q, sequence (P48735 40-452 R140Q): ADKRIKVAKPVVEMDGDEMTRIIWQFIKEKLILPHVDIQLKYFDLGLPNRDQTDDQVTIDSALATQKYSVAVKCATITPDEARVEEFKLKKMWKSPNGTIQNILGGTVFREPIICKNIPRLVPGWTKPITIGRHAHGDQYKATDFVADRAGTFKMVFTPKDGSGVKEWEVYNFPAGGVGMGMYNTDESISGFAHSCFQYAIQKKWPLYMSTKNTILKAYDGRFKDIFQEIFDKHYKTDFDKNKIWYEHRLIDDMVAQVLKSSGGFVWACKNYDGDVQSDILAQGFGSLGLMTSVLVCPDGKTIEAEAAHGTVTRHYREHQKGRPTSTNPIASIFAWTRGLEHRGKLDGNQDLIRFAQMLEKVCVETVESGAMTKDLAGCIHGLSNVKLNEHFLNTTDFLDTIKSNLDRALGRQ

Row | Structure (SMILES) | IC50 [nM]
1 | CCOc1ccc(S(=O)(=O)NCC(F)(F)F)cc1NC(=O)Nc1cc(C(F)(F)F)ccn1 [Compound 190, 4-ethoxy-N-(2,2,2-trifluoroethyl)-3-(3-(4-(trifluoromethyl)pyridin-2-yl)ureido)benzenesulfonamide] | 100 to 1000
2 | O=C(Nc1cc(S(=O)(=O)NCC(F)(F)F)ccc1-c1ccccc1)Nc1ncccc1Cl [Compound 95] | 1000 to 10000
3 | O=C(Nc1cccc(C(F)(F)F)c1)Nc1cc(S(=O)(=O)NCC(F)(F)F)ccc1-c1ccccc1 [Compound 44, N-(2,2,2-trifluoroethyl)-2-(3-(3-(trifluoromethyl)phenyl)ureido)-[1,1′-biphenyl]-4-sulfonamide] | 100 to 1000
4 | O=C(Nc1ccc(F)cc1)Nc1cc(S(=O)(=O)Nc2ccccc2)ccc1-c1ccsc1 [Compound 18] | 1000 to 10000
5 | CN(c1ccccc1)c1ccc(S(=O)(=O)Nc2ccccc2)cc1NC(=O)Nc1cccc(C(F)(F)F)c1 [Compound 341, 4-(methyl(phenyl)amino)-N-phenyl-3-(3-(3-(trifluoromethyl)phenyl)ureido)benzenesulfonamide] | 1000 to 10000
6 | O=C(Nc1cccc(F)n1)Nc1cc(S(=O)(=O)NCC(F)(F)F)ccc1-c1ccccc1 [Compound 86, 2-(3-(6-fluoropyridin-2-yl)ureido)-N-(2,2,2-trifluoroethyl)-[1,1′-biphenyl]-4-sulfonamide] | 100 to 1000
7 | O=C(Nc1ccccc1O)Nc1cc(S(=O)(=O)Nc2ccccc2)ccc1-c1ccsc1 [Compound 13] | 1000 to 10000
8 | O=C(Nc1cccc(C(F)(F)F)c1)Nc1cc(S(=O)(=O)NCC(F)(F)F)cnc1OCC1CC1 [Compound 197, 6-(cyclopropylmethoxy)-N-(2,2,2-trifluoroethyl)-5-(3-(3-(trifluoromethyl)phenyl)ureido)pyridine-3-sulfonamide] | < 100
9 | O=C(Nc1cccc(C(F)(F)F)c1)Nc1cc(S(=O)(=O)N2CCS(=O)(=O)CC2)ccc1-c1ccsc1 [Compound 135, 1-(5-((1,1-dioxidothiomorpholino)sulfonyl)-2-(thiophen-3-yl)phenyl)-3-(3-(trifluoromethyl)phenyl)urea] | 100 to 1000
10 | O=C(Nc1ccc(F)c(Cl)c1)Nc1cc(S(=O)(=O)NC2CC2)ccc1-c1ccccc1 [Compound 52] | 1000 to 10000
11 | CC(C)Oc1ccc(S(=O)(=O)NCC(F)(F)F)cc1NC(=O)Nc1cccc(C(F)(F)F)c1 [Compound 185, 4-isopropoxy-N-(2,2,2-trifluoroethyl)-3-(3-(3-(trifluoromethyl)phenyl)ureido)benzenesulfonamide] | 100 to 1000
12 | N#CC1(NS(=O)(=O)c2cnc(OCC3CC3)c(NC(=O)Nc3cccc(C(F)(F)F)c3)c2)CC1 [Compound 200, N-(1-cyanocyclopropyl)-6-(cyclopropylmethoxy)-5-(3-(3-(trifluoromethyl)phenyl)ureido)pyridine-3-sulfonamide] | 1000 to 10000
13 | O=C(Nc1ccccc1F)Nc1cc(S(=O)(=O)NCC(F)(F)F)ccc1-c1ccccc1 [Compound 33, 2-(3-(2-fluorophenyl)ureido)-N-(2,2,2-trifluoroethyl)-[1,1′-biphenyl]-4-sulfonamide] | 100 to 1000
14 | N#CC1(NS(=O)(=O)c2ccc(OCC3CC3)c(NC(=O)Nc3cccc(C(F)(F)F)c3)c2)CC1 [Compound 179, N-(1-cyanocyclopropyl)-4-(cyclopropylmethoxy)-3-(3-(3-(trifluoromethyl)phenyl)ureido)benzene sulfonamide] | 100 to 1000
15 | O=C(Nc1cc(S(=O)(=O)NCC(F)(F)F)ccc1-c1ccccc1)NC1CCCC1 [Compound 54] | 1000 to 10000
16 | O=C(Nc1ccccc1)Nc1cc(S(=O)(=O)NC2CC2)ccc1-c1ccccc1 [Compound 34, N-cyclopropyl-2-(3-phenylureido)-[1,1′-biphenyl]-4-sulfonamide] | 100 to 1000
17 | CC1CC1NS(=O)(=O)c1ccc(-c2ccsc2)c(NC(=O)Nc2cccc(C(F)(F)F)c2)c1 (stereo not drawn) [Compound 152, N-(2-methylcyclopropyl)-4-(thiophen-3-yl)-3-(3-(3-(trifluoromethyl)phenyl)ureido)benzenesulfonamide] | 100 to 1000
18 | O=C(Nc1cc(F)ccc1F)Nc1cc(S(=O)(=O)NCC(F)(F)F)ccc1-c1ccccc1 [Compound 38, 2-(3-(2,5-difluorophenyl)ureido)-N-(2,2,2-trifluoroethyl)-[1,1′-biphenyl]-4-sulfonamide] | 100 to 1000
19 | O=C(Nc1cc(S(=O)(=O)NCC(F)(F)F)ccc1-c1ccccc1)n1ccc2ccccc21 [Compound 108, N-(4-(N-(2,2,2-trifluoroethyl)sulfamoyl)-[1,1′-biphenyl]-2-yl)-1H-indole-1-carboxamide] | 100 to 1000
20 | O=C(Nc1cccc(C(F)(F)F)c1)Nc1cc(S(=O)(=O)Nc2ccccn2)ccc1-c1ccsc1 [Compound 149] | 1000 to 10000

More lines, now with the values ahead:

Row | IC50 [nM] | Structure (SMILES)
21 | 100 to 1000 | CC(C)C(CO)NS(=O)(=O)c1ccc(-c2ccsc2)c(NC(=O)Nc2cccc(C(F)(F)F)c2)c1 (stereo not drawn) [Compound 123, N-(1-hydroxy-3-methylbutan-2-yl)-4-(thiophen-3-yl)-3-(3-(3-(trifluoromethyl)phenyl)ureido)benzene sulfonamide]
22 | 100 to 1000 | Cc1coc(NC(=O)Nc2cc(S(=O)(=O)NCC(F)(F)F)ccc2-c2ccccc2)n1 [Compound 102, 2-(3-(4-methyloxazol-2-yl)ureido)-N-(2,2,2-trifluoroethyl)-[1,1′-biphenyl]-4-sulfonamide]
23 | 100 to 1000 | CCCNS(=O)(=O)c1ccc(-c2ccsc2)c(NC(=O)Nc2cccc(C(F)(F)F)c2)c1 [Compound 113, N-propyl-4-(thiophen-3-yl)-3-(3-(3-(trifluoromethyl)phenyl)ureido)benzenesulfonamide]
24 | 1000 to 10000 | C[C@@H](NS(=O)(=O)c1ccc(-c2ccsc2)c(NC(=O)Nc2cccc(C(F)(F)F)c2)c1)c1ccccc1 [Compound 144]
25 | 100 to 1000 | O=C(Nc1cccc(Cl)n1)Nc1cc(S(=O)(=O)NCC(F)(F)F)ccc1-c1ccccc1 [Compound 79, 2-(3-(6-chloropyridin-2-yl)ureido)-N-(2,2,2-trifluoroethyl)-[1,1′-biphenyl]-4-sulfonamide]
26 | 100 to 1000 | CCc1cccc(NC(=O)Nc2cc(S(=O)(=O)Nc3ccccc3)ccc2-c2ccsc2)c1 [Compound 5, 3-(3-(3-ethylphenyl)ureido)-N-phenyl-4-(thiophen-3-yl)benzenesulfonamide]
27 | 100 to 1000 | O=C(Nc1cc(S(=O)(=O)NC2CC2)ccc1-c1ccsc1)Nc1ccc(F)cc1C(F)(F)F [Compound 28, N-cyclopropyl-3-(3-(4-fluoro-2-(trifluoromethyl)phenyl)ureido)-4-(thiophen-3-yl)benzenesulfonamide]
28 | 100 to 1000 | O=C(Nc1cccc(Cl)c1)Nc1cc(S(=O)(=O)NCC2CC2)ccc1C1CCCCO1 (stereo not drawn) [Compound 163, 3-(3-(3-chlorophenyl)ureido)-N-(cyclopropylmethyl)-4-(tetrahydro-2H-pyran-2-yl)benzenesulfonamide]
29 | 1000 to 10000 | CC(C)c1cccc(NC(=O)Nc2cc(S(=O)(=O)Nc3ccccc3)ccc2-c2ccsc2)c1 [Compound 14]
30 | 1000 to 10000 | O=C(Nc1cc(S(=O)(=O)NCC(F)(F)F)ccc1-c1ccccc1)Nc1ncccc1F [Compound 99, 2-(3-(3-fluoropyridin-2-yl)ureido)-N-(2,2,2-trifluoroethyl)-[1,1′-biphenyl]-4-sulfonamide]
31 | 1000 to 10000 | O=C(Nc1cccc(C(F)(F)F)c1)Nc1cc(S(=O)(=O)Nc2ccccc2)ccc1-c1cccnc1 [Compound 61]
32 | 100 to 1000 | O=C(Nc1ncc(Cl)s1)Nc1cc(S(=O)(=O)NCC(F)(F)F)ccc1C1CCCCO1 (stereo not drawn) [Compound 169, 3-(3-(5-chlorothiazol-2-yl)ureido)-4-(tetrahydro-2H-pyran-2-yl)-N-(2,2,2-trifluoroethyl)benzene sulfonamide]
33 | 100 to 1000 | O=C(Nc1cccc(C(F)(F)F)c1)Nc1cc(S(=O)(=O)NCC(F)(F)F)ccc1OCC1CCOC1 (stereo not drawn) [Compound 184, 4-((tetrahydrofuran-3-yl)methoxy)-N-(2,2,2-trifluoroethyl)-3-(3-(3-(trifluoromethyl)phenyl)ureido)benzenesulfonamide]
34 | 100 to 1000 | O=C(Nc1cccc(C(F)(F)F)c1)Nc1cc(S(=O)(=O)Nc2ccccc2)ccc1-n1ccnc1 [Compound 354]
35 | 100 to 1000 | Cc1ccc(NC(=O)Nc2c(Cl)cccc2Cl)cc1S(=O)(=O)Nc1ccc(Cl)cc1 [Compound 352]
36 | 100 to 1000 | CC1(NS(=O)(=O)c2ccc(-c3ccsc3)c(NC(=O)Nc3cccc(C(F)(F)F)c3)c2)CC1 [Compound 151, N-(1-methylcyclopropyl)-4-(thiophen-3-yl)-3-(3-(3-(trifluoromethyl)phenyl)ureido)benzenesulfonamide]
37 | < 100 | O=C(Nc1cccc(C(F)(F)F)c1)Nc1cc(S(=O)(=O)NC2COC2)ccc1-c1ccsc1 [Compound 32, N-(oxetan-3-yl)-4-(thiophen-3-yl)-3-(3-(3-(trifluoromethyl)phenyl)ureido)benzenesulfonamide]
38 | 100 to 1000 | Cc1ccccc1NC(=O)Nc1cc(S(=O)(=O)Nc2ccccc2)ccc1-c1ccsc1 [Compound 2, N-phenyl-4-(thiophen-3-yl)-3-(3-(o-tolyl)ureido)benzenesulfonamide]
39 | 100 to 1000 | CS(=O)(=O)c1cccc(NC(=O)Nc2cc(S(=O)(=O)NCC(F)(F)F)ccc2-c2ccccc2)c1 [Compound 67, 2-(3-(3-(methylsulfonyl)phenyl)ureido)-N-(2,2,2-trifluoroethyl)-[1,1′-biphenyl]-4-sulfonamide]
40 | 1000 to 10000 | C[C@H](NS(=O)(=O)c1ccc(-c2ccsc2)c(NC(=O)Nc2cccc(C(F)(F)F)c2)c1)c1ccccc1 [Compound 145]
41 | 100 to 1000 | O=C(Nc1ccc(F)c(Cl)c1)Nc1cc(S(=O)(=O)NCC(F)(F)F)ccc1C1CCCCO1 (stereo not drawn) [Compound 166, 3-(3-(3-chloro-4-fluorophenyl)ureido)-4-(tetrahydro-2H-pyran-2-yl)-N-(2,2,2-trifluoroethyl)benzene sulfonamide]
42 | 100 to 1000 | CCONS(=O)(=O)c1ccc(-c2ccsc2)c(NC(=O)Nc2cccc(C(F)(F)F)c2)c1 [Compound 139, N-ethoxy-4-(thiophen-3-yl)-3-(3-(3-(trifluoromethyl)phenyl)ureido)benzenesulfonamide]
